Columns and labels:
MYC = assay: Western-blot analysis of MYC expression level; type: cell-based; conditions: A673 and SK-N-MC cells, 10 nM, 12-48 hrs; FIG. 5
Experimental: (§1) Western-blot analysis was performed to examine the suppression by YM155 on the expression level of EWS-FLI1, the protein product of EWSR1-FLI1 translocation, and its effector proteins MYC and cyclin D1. In brief, A673 and SK-N-MC cells seeded on 6-well plates were treated with 10 nM YM155 for 12-48 hrs. The cells were then harvested and lysed in a lysis buffer containing protease inhibitor cocktail (Beyotime, China) at 4C. The concentrations of total protein in the cell lysates were determined by BCA Protein Assay Kit (ThermoFisher, USA). Forty micrograms of total protein was used in each lane for SDS-PAGE and western-blot assay. Antibodies against EWS-FLI1, MYC, and cyclin D1 were used to detect the expression levels of the proteins. GAPDH was used as a loading control.

SK-N-MC xenograft = assay: Murine SK-N-MC xenograft Ewing tumor model; type: in vivo, mice
A673 cell line = assay: In vitro cell proliferation assay (EdU labeling, high-content screening); type: cell-based; conditions: A673, EWSR1-FLI1 translocation; 72 hrs exposure, 2-fold dilutions from 200 nM; FIG. 1A
Experimental: (§2) In vitro cell proliferation assays were performed to test the sensitivity of Ewing tumor cell lines to treatment with YM155. The A673 and SK-N-MC cell lines, each of which have the EWSR1-FLI1 translocation that is characteristic of most cases of Ewing tumors, were seeded in 96-well plates at 2×10^3 cells/well and allowed to attach overnight at 37° C. and 5% CO2. The cells were exposed to YM155 at designated concentrations (2-fold serial dilutions starting from 200 nM) for 72 hrs.
(§3) Following drug exposure, the cells were labeled with 5-ethynyl-2′- deoxyuridine (EdU) to assess the tumor cell proliferation rates. The labeling lasted 4 hours in the presence of drug exposure. […]
(§4) The labeled cells were fixed with formaldehyde for 30 min, followed by staining with Hoechst 33342 in a buffer containing 0.5% triton X-100. The incorporated Edu was detected by Click-iT reaction where fixed cells were incubated with a reaction mixture containing 1X Click-iT EdU reaction buffer, CuSO4, and azide-conjugated fluorescent dye in the dark. […]
(§5) The stained tumor cells were imaged by a high-content screening (HCS) platform (Thermo Scientific Cellomics Array Scan XTi HCS reader). […] From the images fluorescent signals for cell nucleus and the EdU incorporated in newly synthesized DNA were obtained from the HCS reader. […] The IC50 was calculated from the dose response curve of drug inhibition.

SK-N-MC cell line = assay: as above; type: cell-based; conditions: EWSR1-FLI1 translocation, 72 hrs exposure, 2-fold dilutions from 200 nM, FIG. 1B
Experimental: as §2, §3, §4, §5

EWS-FLI1 = assay: Western-blot analysis of EWS-FLI1 expression level; type: cell-based; conditions: A673 and SK-N-MC cells, 10 nM, 12-48 hrs; FIG. 5
Experimental: as §1

cyclin D1 = assay: Western-blot analysis of cyclin D1 expression level; type: cell-based; conditions: A673 and SK-N-MC cells, 10 nM, 12-48 hrs; FIG. 5
Experimental: as §1

A673 cells = assay: Apoptosis assays (Annexin V/PI and caspase 3 activity, flow cytometry); type: cell-based; conditions: 10 nM, 3 days drug exposure, vs DMSO, FIGS. 2A-2D
Experimental: (§6) Cellular apoptosis was then assayed with the Alexa Fluor™ 488 Annexin V/Dead cell apoptosis Kit (ThermoFisher®, USA) and GreenNuc™ live cell caspase 3 activity assay kit (Beyotime Biotechnology, China). Briefly, cells cultured in 6-well tissue culture plates were treated with 10 nM YM155 or DMSO (control). Following 3 days drug exposure, the cells were collected and assayed for apoptosis according to the manufacturers' instructions. For annexin V assay, the cell suspensions were incubated with Alexa Flour™ 488 labeled annexin V and Propidium Iodide (PI). For the caspase 3 activity assay, a caspase 3 substrate was added to generate fluorescent product. The cells were then analyzed on a BD LSR Fortessa cell analyzer. Flow cytometry data was analyzed with Flowjo software.

SK-N-MC cells = assay: as above; type: cell-based; conditions: 10 nM, 3 days drug exposure, vs DMSO, FIGS. 3A-3D
Experimental: as §6

A673 xenograft = assay: Murine A673 xenograft Ewing tumor model
Experimental: The dosing schedules in FIG. 4B are as follows: YM155 monobromide, 3.5 mg/kg, 21-day-infusion with an osmotic pump; vincristine, 0.5 mg/kg, QW*3, IV; doxorubicin, 3.3 mg/kg, QW*3, IV; cyclophosphamide, 40 mg/kg, QW*3, IV. The dosing schedules in FIG. 4B are as follows: YM155 monobromide, 2 mg/kg, 21-day-infusion with an osmotic pump; ifosfamide, 30 mg/kg, QW*3, IV; etoposide, 7.5 mg/kg, QW*3, IP. […] The dosing schedules were as follows: YM155 monobromide, 3.5 mg/kg, 21-day-infusion with an osmotic pump; vincristine, 0.5 mg/kg, QW*3, IV; doxorubicin, 3.3 mg/kg, QW*3, IV; cyclophosphamide, 40 mg/kg, QW*3, IV.
To test for in vivo activity, a Ewing tumor model was generated by implanting either A673 or SK-N-MC cells into mice. When the tumor size reached 150 mm3, the mice were grouped randomly and injected with YM155 by 21-day infusion with an osmotic pump. The tumor size was measured every three days.

## 1-(2-Methoxyethyl)-2-methyl-4,9-dioxo-3-(pyrazin-2-ylmethyl)-4,9-dihydro-1H-naphtho[2,3-d] imidazolium bromide [YM155]
MYC
  protein expression of MYC: inhibited protein expression
SK-N-MC xenograft; SK-N-MC xenograft in mice, 3.5 mg/kg, 21-day infusion with osmotic pump, FIG. 4C
  effect on tumor growth: strong inhibitory effect on tumor growth
SK-N-MC xenograft; SK-N-MC xenograft, YM155 3.5 mg/kg 21-day infusion vs vincristine 0.5 mg/kg QW*3 IV
  efficacy compared with vincristine standalone therapy: superior
SK-N-MC xenograft; SK-N-MC xenograft, YM155 3.5 mg/kg 21-day infusion vs vincristine 0.5, doxorubicin 3.3, cyclophosphamide 40 mg/kg QW*3 IV
  efficacy compared with vincristine/doxorubicin/cyclophosphamide triple therapy: superior
A673 cell line
  sensitivity to YM155 in in vitro cell proliferation assay: highly sensitive
SK-N-MC cell line
  sensitivity to YM155 in in vitro cell proliferation assay: highly sensitive
EWS-FLI1
  protein expression of EWS-FLI1: inhibited protein expression
Cyclin D1
  protein expression of cyclin D1: inhibited protein expression
A673 cells
  apoptosis induction: induced strong apoptosis
SK-N-MC cells
  apoptosis induction: induced strong apoptosis
A673 xenograft; A673 xenograft in mice, 21-day infusion with osmotic pump, 3.5 or 2 mg/kg, FIGS. 4A-4B
  effect on tumor growth: strong inhibitory effect on tumor growth
A673 xenograft; A673 xenograft, YM155 2 mg/kg 21-day infusion vs ifosfamide 30 mg/kg QW*3 IV, etoposide 7.5 mg/kg QW*3 IP
  efficacy compared with ifosfamide/etoposide combination therapy: superior
A673 xenograft; A673 xenograft, YM155 3.5 mg/kg 21-day infusion vs vincristine 0.5 mg/kg QW*3 IV
  efficacy compared with vincristine standalone therapy: superior
A673 xenograft; A673 xenograft, YM155 3.5 mg/kg 21-day infusion vs vincristine 0.5, doxorubicin 3.3, cyclophosphamide 40 mg/kg QW*3 IV
  efficacy compared with vincristine/doxorubicin/cyclophosphamide triple therapy: superior

— US20230277536A1, “METHODS AND COMPOSITIONS FOR TREATING EWING FAMILY OF TUMORS” (priority 2021, published 2023)
